Tests used:
[1] = molecular target: T1, TYK2-JH2 (aa 575-869, in-house) protein (Homo sapiens, UniProt P29597); assay: TYK2-JH2 biochemical assay (HTRF probe displacement); assay type: binding; conditions: Biochemical assay; read-out: TYK2-JH2 IC50
T1 construct: TYK2-JH2 (aa 575-869, in-house) protein; made in house
Outline: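 HTRF probe-displacement format: compound dilutions (10 points, 5-fold, from 500 uM in DMSO at 500×) were combined with 0.2 nM TYK2-JH2 protein for 0.5 h at room temperature in HEPES pH 7.5 buffer with MgCl2, BSA, DTT and Brij-35. Percent inhibition came from the 615/665 nm fluorescence ratio, fitted to a four-parameter logistic for IC50.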

pSTAT5/GM-CSF = pSTAT5/GM-CSF cellular assay (JAK2 selectivity); assay type: cell-based; conditions: for Selectivity fold (TYK2/JAK2): pSTAT5/GM-CSF IC50 over pSTAT4/IL-12 IC50
[2] = system: JAK2, TYK2/p-STAT4 (Tyr693) activated by IL-12 in NK-92 cell line; assay: IL-12-JAK2, TYK2/p-STAT4 (Tyr693) inhibition IC50 cellular assay; assay type: cell-based; conditions: for IC50: NK92, Cellular assay, read-out: pSTAT4/IL-12 IC50; for Selectivity fold (TYK2/JAK2): Cellular assay, pSTAT5/GM-CSF IC50 vs pSTAT4/IL-12 IC50
Outline: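 p-STAT4 (Tyr693) in lysates was measured by AlphaLISA SureFire Ultra after a 30 min IL-12 challenge (40 ng/ml final) at 37° C. Overnight-starved, IL-2-free NK-92 cells had been pretreated 1 h with compound at 10000 to 0.61 nM (4-fold, 8 points). IC50 values came from four-parameter logistic fitting.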

T1 sequence (P29597 575-869): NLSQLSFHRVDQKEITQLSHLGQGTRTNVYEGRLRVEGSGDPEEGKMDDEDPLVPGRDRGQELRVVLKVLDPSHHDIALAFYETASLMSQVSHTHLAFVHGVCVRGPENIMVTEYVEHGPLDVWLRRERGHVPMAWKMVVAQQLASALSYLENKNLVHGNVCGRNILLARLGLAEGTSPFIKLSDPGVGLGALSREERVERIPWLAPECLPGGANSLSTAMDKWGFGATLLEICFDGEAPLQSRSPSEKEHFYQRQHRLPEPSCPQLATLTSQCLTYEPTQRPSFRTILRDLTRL

| SMILES | IC50 [1] | IC50 (pSTAT5/GM-CSF) | Selectivity fold (TYK2/JAK2) (pSTAT5/GM-CSF) | IC50 [2] | Selectivity fold (TYK2/JAK2) [2] |
| --- | --- | --- | --- | --- | --- |
| COCc1cc(Nc2cc(NC(C)=O)ncc2-c2ccn(C)n2)nc(S(C)(=O)=O)c1 [Example J19, N-(4-((4-(methoxymethyl)-6-(methylsulfonyl)pyridin-2-yl)amino)-5-(1-methyl-1H-pyrazol-3-yl)pyridin-2-yl)acetamide] | 0.015 nM | > 10000 nM | >1137 fold | 0.882 nM | – |
| COc1cc(Nc2cc(NC(C)=O)ncc2-c2ccn(C(C)C)n2)cc(S(C)(=O)=O)c1 [Example M27, N-(5-(1-isopropyl-1H-pyrazol-3-yl)-4-((3-methoxy-5-(methylsulfonyl)phenyl)amino)pyridin-2-yl)acetamide] | 0.035 nM | > 10000 nM | >2597 fold | 3.85 nM | – |
| COCc1ccc(-c2cnc(NC(C)=O)cc2Nc2cc(C)cc(S(C)(=O)=O)n2)nc1 [Example E2, N-(5-(methoxymethyl)-4′-((4-methyl-6-(methylsulfonyl)pyridin-2-yl)amino)-[2,3′-bipyridin]-6′-yl)acetamide] | 0.017 nM | 5810 nM | – | 0.325 nM | 17867 fold |
| CC(=O)Nc1cc(Nc2cc(OC3CC3)cc(S(C)(=O)=O)c2)c(-c2ccn(C)n2)cn1 [Example J36, N-(4-((3-cyclopropoxy-5-(methylsulfonyl)phenyl)amino)-5-(1-methyl-1H-pyrazol-3-yl)pyridin-2-yl)acetamide] | 0.043 nM | > 10000 nM | >1980 fold | 5.05 nM | – |
| COC1CC(Oc2cc(Nc3cc(NC(C)=O)ncc3-c3ccc(C(C)(C)O)cn3)nc(S(C)(=O)=O)c2)C1 (stereo not shown) [Example H29, N-(5-(2-hydroxypropan-2-yl)-4′-((4-(3-methoxycyclobutoxy)-6-(methylsulfonyl)pyridin-2-yl)amino)-[2,3′-bipyridin]-6′-yl)acetamide] | 0.022 nM | 8490 nM | – | 1.77 nM | 4797 fold |
| CC(=O)Nc1cc(Nc2cc(F)cc(S(C)(=O)=O)c2)c(-c2ccc(C(C)(C)O)cn2)cn1 [Example H19, N-(4′-((3-fluoro-5-(methylsulfonyl)phenyl)amino)-5-(2-hydroxypropan-2-yl)-[2,3′-bipyridin]-6′-yl)acetamide] | 0.028 nM | > 10000 nM | – | 3.2 nM | >3125 fold |
| CC(=O)Nc1cc(Nc2cc(OCC3CC3)cc(S(C)(=O)=O)n2)c(-c2ccn(C)n2)cn1 [Example J3, N-(4-((4-(cyclopropylmethoxy)-6-(methylsulfonyl)pyridin-2-yl)amino)-5-(1-methyl-1H-pyrazol-3-yl)pyridin-2-yl)acetamide] | 0.026 nM | > 10000 nM | >34965 fold | 0.286 nM | – |
| COCc1ccnc(-c2cnc(NC(C)=O)cc2Nc2cccc(S(C)(=O)=O)n2)c1 [Example B8, N-(4-(methoxymethyl)-4′-((6-(methylsulfonyl)pyridin-2-yl)amino)-[2,3′-bipyridin]-6′-yl)acetamide] | 0.047 nM | > 10000 nM | – | 1.68 nM | >5952 fold |
| CC(=O)Nc1cc(Nc2cc(OC3CCCC3)cc(S(C)(=O)=O)n2)c(-c2ccn(C)n2)cn1 [Example J45, N-(4-((4-(cyclopentyloxy)-6-(methylsulfonyl)pyridin-2-yl)amino)-5-(1-methyl-1H-pyrazol-3-yl)pyridin-2-yl)acetamide] | 0.028 nM | > 10000 nM | >25125 fold | 0.398 nM | – |
| CC(=O)Nc1cc(Nc2cc(OCC3COC3)cc(S(C)(=O)=O)n2)c(-c2ccn(C)n2)cn1 [Example J25, N-(5-(1-methyl-1H-pyrazol-3-yl)-4-((6-(methylsulfonyl)-4-(oxetan-3-ylmethoxy)pyridin-2-yl)amino)pyridin-2-yl)acetamide] | 0.025 nM | > 10000 nM | >3436 fold | 2.91 nM | – |
| COC(C)c1cc(Nc2cc(NC(C)=O)ncc2-c2ccn(C)n2)nc(S(C)(=O)=O)c1 (stereo not shown) [Example J41, N-(4-((4-(1-methoxyethyl)-6-(methylsulfonyl)pyridin-2-yl)amino)-5-(1-methyl-1H-pyrazol-3-yl)pyridin-2-yl)acetamide] | 0.027 nM | > 10000 nM | >3355 fold | 2.98 nM | – |
| COc1ccncc1-c1cc(Nc2cc(NC(C)=O)ncc2-c2ccc3c(n2)OCC(C)(C)O3)nc(S(C)(=O)=O)c1 [Example Q101, N-(5-(2,2-dimethyl-2,3-dihydro-[1,4]dioxino[2,3-b]pyridin-6-yl)-4-((4-methoxy-6′-(methylsulfonyl)-[3,4′-bipyridin]-2′-yl)amino)pyridin-2-yl)acetamide] | 0.03 nM | 373 nM | 412 fold | 0.904 nM | – |
| CO[C@H](C)COc1cc(Nc2cc(NC(C)=O)ncc2-c2cc(C)n(C)n2)nc(S(C)(=O)=O)c1 [Example N6, (R)-N-(5-(1,5-dimethyl-1H-pyrazol-3-yl)-4-((4-(2-methoxypropoxy)-6-(methylsulfonyl)pyridin-2-yl)amino)pyridin-2-yl)acetamide] | 0.039 nM | > 10000 nM | >36496 fold | 0.274 nM | – |
| CC(=O)Nc1cc(Nc2ccc(C)c(S(C)(=O)=O)n2)c(-c2ccn(C)n2)cn1 [Example J51, N-(5-(1-methyl-1H-pyrazol-3-yl)-4-((5-methyl-6-(methylsulfonyl)pyridin-2-yl)amino)pyridin-2-yl)acetamide] | 0.043 nM | > 10000 nM | >6329 fold | 1.58 nM | – |
| COCc1ccc(-c2cnc(NC(C)=O)cc2Nc2cc(OC)cc(S(C)(=O)=O)n2)nc1 [Example E7, N-(4′-((4-methoxy-6-(methylsulfonyl)pyridin-2-yl)amino)-5-(methoxymethyl)-[2,3′-bipyridin]-6′-yl)acetamide] | 0.02 nM | > 10000 nM | – | 0.447 nM | >22371 fold |
| CC(=O)Nc1cc(Nc2cc(OC(F)F)cc(S(C)(=O)=O)n2)c(-c2ccn(C)n2)cn1 [Example J58, N-(4-((4-(difluoromethoxy)-6-(methylsulfonyl)pyridin-2-yl)amino)-5-(1-methyl-1H-pyrazol-3-yl)pyridin-2-yl)acetamide] | 0.025 nM | > 10000 nM | >20120 fold | 0.497 nM | – |
| [2H]C([2H])([2H])Oc1cc(Nc2cc(NC(C)=O)ncc2-c2ccc3c(n2)OCC(C)(C)O3)nc(S(C)(=O)=O)c1 [Example Q24, N-(5-(2,2-dimethyl-2,3-dihydro-[1,4]dioxino[2,3-b]pyridin-6-yl)-4-((4-(methoxy-d3)-6-(methylsulfonyl)pyridin-2-yl)amino)pyridin-2-yl)acetamide] | 0.033 nM | 620 nM | 1109 fold | 0.559 nM | – |
| CCn1ccc(-c2cnc(NC(C)=O)cc2Nc2cc(OC(C)C)cc(S(C)(=O)=O)n2)n1 [Example M6, N-(5-(1-ethyl-1H-pyrazol-3-yl)-4-((4-isopropoxy-6-(methylsulfonyl)pyridin-2-yl)amino)pyridin-2-yl)acetamide] | 0.032 nM | > 10000 nM | >8264 fold | 1.21 nM | – |
| COCCOc1ccc(-c2cnc(NC(C)=O)cc2Nc2cc(OC[C@@H](C)OC)cc(S(C)(=O)=O)n2)nc1 [Example D7, (R)-N-(5-(2-methoxyethoxy)-4′-((4-(2-methoxypropoxy)-6-(methylsulfonyl)pyridin-2-yl)amino)-[2,3′-bipyridin]-6′-yl)acetamide] | 0.031 nM | > 10000 nM | – | 0.805 nM | >12422 fold |
| CC(=O)Nc1cc(Nc2cc(C)cc(S(C)(=O)=O)n2)c(-c2ccco2)cn1 [Example A9, N-(5-(furan-2-yl)-4-((4-methyl-6-(methylsulfonyl)pyridin-2-yl)amino)pyridin-2-yl)acetamide] | 0.041 nM | > 10000 nM | – | 1.33 nM | >7518 fold |
| CC(=O)Nc1cc(Nc2cc(C3CCOCC3)cc(S(C)(=O)=O)n2)c(-c2ccc3c(n2)OCC(C)(C)O3)cn1 [Example Q23, N-(5-(2,2-dimethyl-2,3-dihydro-[1,4]dioxino[2,3-b]pyridin-6-yl)-4-((6-(methylsulfonyl)-4-(tetrahydro-2H-pyran-4-yl)pyridin-2-yl)amino)pyridin-2-yl)acetamide] | 0.028 nM | 8100 nM | 13390 fold | 0.605 nM | – |
| COCc1ccc(-c2cnc(NC(C)=O)cc2Nc2cc(O[C@H]3C[C@H](O)C3)cc(S(C)(=O)=O)n2)nc1 [Example E8, N-(4′-((4-((1r,3r)-3-hydroxycyclobutoxy)-6-(methylsulfonyl)pyridin-2-yl)amino)-5-(methoxymethyl)-[2,3′-bipyridin]-6′-yl)acetamide] | 0.034 nM | > 10000 nM | – | 2.86 nM | >3496 fold |

From patent US20240043435A1, “TYK-2 INHIBITOR” (BEIGENE, LTD., priority 2020, published 2024)
